Data: US20140030808A1, “Method for Cellular RNA Expression” (BIONTECH AG, priority 2010, published 2014)
Where two headings read alike, the source gives them in different places.

Columns and labels:
Format in all cases: cell-based
[1] = tested on: Primary human umbilical vein endothelial cells (HUVECs)
[2] = tested on: murine embryonic fibroblasts (MEFs); experiment: Luciferase reporter gene assay in murine fibroblasts electroporated with IVT RNA; details: 0.5 μM to 2 μM, mouse fibroblasts, after electroporation
Procedure: (A-C) Primary human foreskin fibroblasts from different donors and suppliers (panel A: BJ fibroblasts; panel B CCD1079Sk; panel C: HFF) and (D) murine embryonic fibroblasts (MEFs) were electroporated with 0.5 μg IVT RNA encoding for firefly luciferase and 1.25 μg IVT RNA encoding for enhanced GFP (eGFP). The cells were plated in duplicates into 96-well-plates at a density of 30000 cells/well. The cells were either left untreated or incubated with increasing amounts of C13H8N4OS (PKR-inhibitor) ranging from 0.5 μM to 2 μM as indicated in the panel legends. Luciferase activity was measured at the indicated time points. Mean values of the duplicates are given.
Transfer of IVT-RNA into cells was performed by electroporation (EP). To this end, 1-10×10^7 cells per EP were harvested, washed sequentially with PBS supplemented with 2 mM EDTA and X-VIVO 15 medium (Lonza), resuspended in 125 μl X-VIVO 15 medium and transferred to a 2-mm gap sterile electroporation cuvette (Bio-RAD, Hercules, Calif., USA). […]
For luciferase assays, cells electroporated with in vitro transcribed RNA coding for luciferase were plated in 96-well white flat-bottom microplates (Nunc, Langenselbold, Germany) and incubated at 37° C. […] Bioluminescence flux was measured with the Infinite M200 microplate luminescence reader (Tecan, Crailsheim, Germany) with 1 s integration time. […]

[3] = tested on: Primary human foreskin fibroblasts (BJ, CCD1079Sk, HFF); details: for luciferase expression after transient treatment: BJ and CCD1079SK
[4] = tested on: Primary human foreskin fibroblasts (BJ, CCD1079Sk); experiment: GFP expression by flow cytometry (MFI) in fibroblasts electroporated with IVT RNA
Procedure: (AB) Primary human foreskin fibroblasts from different donors and suppliers (panel A: BJ fibroblasts; panel B CCD1079Sk) and (C) MEFs were electroporated with 0.5 μg IVT RNA encoding for firefly luciferase and 1.25 μg IVT RNA encoding for enhanced GFP (eGFP). The cells were plated into […] at a density of 250000 cells/well. The cells were either left untreated or incubated with increasing amounts of C13H8N4OS (PKR-inhibitor) ranging from 0.5 μM to 2 μM as indicated in the panel legends. GFP expression was measured by flow cytometry at the indicated time points. The mean fluorescence intensity (MFI) of the transfected GFP-positive cell fractions is shown.
Transfer of IVT-RNA into cells was performed by electroporation (EP). […]
For quantification of d2eGFP and eGFP protein, cells were washed in PBS, fixed using PBS supplemented with 2% formaldehyde and analyzed by flow cytometry on a FACS Canto II flow cytometer (BD Biosciences, Heidelberg, Germany). Gating was performed on living cells and mean fluorescence intensity (MFI) of GFP expressing cell populations was quantified using FlowJo software (Tree Star, Ashland, Oreg., USA). […] Gating was performed on living CD4+ and CD8+ T-cells and GFP expression and MFI of both T-cell subpopulations was determined by flow cytometry. […]

[5] = highest concentration used (2 μM)

For `O=C1Nc2ccc3ncsc3c2/C1=C/c1c[nH]cn1` [C13H8N4OS, 6,8-dihydro-8-(1H-imidazol-5-ylmethylene)-7H-pyrrolo[2,3-g]benzothiazol-7-one], the luciferase expression ([1]; 0.5 μM to 2 μM, HUVECs) was “enhanced in HUVECs in a dose dependent manner”, the “luciferase expression on additional application of inhibitor” value ([1]; HUVECs cotransfected with E3 and K3, increasing concentrations of C13H8N4OS) was “additively enhanced” and the “duration of luciferase expression compared with fibroblasts” value ([1]; HUVECs, PKR inhibition) was “not as long lasting as observed in fibroblasts”. For the same compound, the luciferase expression [2] was “dose dependent increase”, the luciferase expression ([3]; 0.5 μM to 2 μM, human fibroblasts, after electroporation) was “dose dependent increase” and the “luciferase expression on additional application of inhibitor” value ([3]; 2 μM C13H8N4OS on CCD1079SK cotransfected with E3/K3, vs untreated controls) was “additive increase of luciferase expression and a stabilization”. For the same compound, the “luciferase expression after transient treatment” value ([3]; 2 μM, 7 h incubation period) was “did not results in a significant increase of luciferase expression”, the “luciferase expression after transient treatment” value ([3]; 2 μM, 24 h treatment) was “rapidly reversed after removal of the inhibitors” and the “luciferase expression after transient treatment” value ([3]; 2 μM, 48 h treatment) was “less efficient than a permanent treatment”. The “luciferase expression from modified (5mC and PU) IVT RNA” value ([3]; 2 μM, CCD1079Sk, 7 h to 72 h) was “further increases and stabilizes”, the “luciferase expression from unmodified IVT-RNA” value ([3]; 2 μM, CCD1079Sk, 7 h to 72 h) was “greatly enhanced and stabilized” and the “duration of high luciferase expression levels” value ([3]; 2 μM, permanent inhibition) was 5 days. For the same compound, the “stabilization of luciferase expression” value [3, 5] was “high level of stabilization”, the “GFP expression (MFI)” value ([4]; 0.5 μM to 2 μM, human fibroblasts) was “dose dependent increase” and the “stabilization of GFP expression” value [4, 5] was “high level of stabilization”.
